Experimental data taken from article PMC8302598, “Rapid discovery of self-assembling peptides with one-bead one-compound peptide library” (Nature Communications, 2021).

Experiments:
HeLa cells = assay: CCK-8 cell viability assay; assay type: cell-based; details: incubation 24 and 72 h, n=3
Experimental: Finally, we examined the biological effects and cellular distribution of the eight self-assembling peptides on HeLa cells. […] In order to observe the nanomaterials under fluorescent microscopy, each peptide preparation was spiked with 3% of the same peptide N-terminally labeled with FITC, and then added to HeLa cells at a final concentration of 40 μM. […] After 4 h of incubation with the peptide assemblies, the cells were observed under a fluorescent microscope (Figs. 4c, d and Supplementary 22). […] It is important to note that LDFPI nanoparticle was small (8 nm diameter) even after 4 h incubation. Its small size may in part explain its ability to pass through the nuclear pore complexes[32],[33]. […] To evaluate the cell uptake mechanism of peptide assemblies (YFTEF, ISDNL, and FGFDP) into the cytoplasm, we treated the cells at 4 °C or with various endocytosis inhibitors (Supplementary Fig. 23).
TentaGel S Resin was purchased from Rapp Polymere (Germany, loading 0.31 mmol/g). 9-Fluorenylmethoxycarbonyl (Fmoc)-protected amino acids, 2-(1H-benzotriazole-1-yl)-1,1,3,3- tetramethyluronium hexafluoro-phosphate (HBTU), and Wang resin were obtained from GL Biochem (China). Trifluoroacetic acid (TFA), fluorescein isothiocyanate (FITC), N-methyl morpholine (NMM), piperidine, and N,N′-dimethylformamide (DMF) were all from Beijing Chemical Plant (China). 1,2-Ethanedithiol (EDT) was purchased from Alfa Aesar (USA). Dimethyl sulfoxide (DMSO) was purchased from Aldrich Chemical Co. and used without further purification. Cyanogen bromide (CNBr) was from J&K Chemical (China). The HeLa cell lines were received from the Cell Culture Center of the Institute of Basic Medical Sciences, Chinese Academy of Medical Sciences (Beijing, China). Cell culture medium and fetal bovine serum were from WisentInc (Multicell, WisentInc, St. Bruno. The cell counting kit-8 assay (CCK-8) (Beyotime Institute of Biotechnology, China) was used. Hela cells were maintained Dulbecco’s modified eagle’s medium (DMEM) with 10% fetal bovine serum and 1% penicillin. All cells were cultured in a humidified atmosphere containing 5% CO2 at 37 °C.
Supplementary Figure 21 . a-h. CCK-8 cell viability assay for 8 pentapeptides (FTISD, ITSVV, YFTEF, ISDNL , LDFPI, FAGFT,
FGFDP, FFVDF) after incubation with HeLa cells for 24 and 72 h.
Standard Deviatio n (n=3).
(1 picture or pasted object on this page, not shown here)

[1] = Critical micelle concentration (CMC); assay type: physicochemical; details: soluble HPLC-purified peptide, aqueous
Experimental: To estimate the propensity of the identified peptides to self-assemble, the critical micelle concentrations (CMC) of the eight positive peptides and four negative peptides were determined, and the results are shown in Table 1 and Supplementary Figs. 13, 14. The CMC of all the eight positive peptides were detectable and found to range between 8.4 and 14.8 μM, indicating the propensity for these peptides to self-assemble under aqueous environment. […] Hydrophobicity of peptides can be predicted by the value of GRAVY[28] with more negative value for more hydrophilic peptides. Of the four negative assembling peptides, two have a negative GRAVY value. […] Experimental testing, such as the screening strategy described in this work, is needed. This is because multiple factors, including hydrophobicity, hydrogen-bonding, electrostatic interactions, and positions of each residue within the peptides, all contribute to the assembling and final morphology of the self-assembled nano-structure.

[2] = TEM morphology and size of peptide nano-assemblies over time; assay type: physicochemical; details: for Initial nanostructure (TEM): DMSO stock 5 mM diluted 100X with water, 50 μM (legend: 40 μM), 1% DMSO, fixed immediately (0 h); for Nanoparticle size by TEM, 0 h / Nanoparticle size by TEM, 4 h: H2O with 1% DMSO, 40 μM / 50 μM
Text: Self-assembling peptides with good biocompatibility may be used to construct nanocarriers for drug delivery. We recently reported the use of FFVLK, the reverse sequence of KLVFF, as a self-aggregating β-sheet forming domain for the delivery of HER2 targeting peptides for successful treatment of breast cancer in xenograft models. Such FFVLK containing peptide is able to self-assemble into nanoparticles. Upon intravenous administration, the FFVLK-nanoparticle was able to transform into nanofibrillar network when encountering HER2 at the tumor sites. To investigate the morphology of the nano-assembly formed by the eight self-assembling peptides, we dissolved each of these peptides in DMSO (5 mM) and then diluted them 100X with water at a final peptide concentration of 50 μM to induce spontaneous self-assembly. Each sample was fixed immediately after peptide solution preparation and at 4 h time point for subsequent TEM processing and analysis. As clearly shown in Fig. 4a, all eight self-assembling peptides initially formed some nanostructures: nanoparticles for ITSVV, YFTEF, ISDNL, LDFPI, FAGFT, FGFDP, and FTISD; nanofibers for FFVDF. […] LDFPI (8 nm) maintained the particulate morphology without changing of diameter in 4 h. FFVDF formed nanofibers at 0 and 4 h. […] Time-dependent size variations of pentapeptides in water were further confirmed by DLS spectra (Supplementary Fig. 18). The initial diameters of nanoparticles formed by seven pentapeptides were larger than that observed by TEM, probably due to hydration radius. The size of the nanostructure increased over time, correlating well with the morphologic transformation. […] Circular dichroism (CD) was used to monitor the secondary structures of the nano-assembly of the eight self-assembling peptides over time (Supplementary Fig. 20).
Pentapeptides monomers were dissolved in DMSO at a concentration of 5.0 mM, followed by quick injection into water at a volume ratio of 1:99 for DMSO and H2O to obtain the nanomaterials solution (50 μM). For 30 mM pentapeptide solution, the pentapeptide was dissolved in water and sonicated for 3 min.
The pentapeptide solution with the concentration of 20 μM (10 μL) was placed dropwise onto a copper mesh for 5 min, then most of the liquid was removed through a filter paper. Ten microliters of uranyl acetate solution were employed to stain the samples for 5 min, followed by drying the spare liquid with the filter. Finally, the copper mesh was washed with 10 μL of deionized water, which was blotted after staining and drying at room temperature. All of the samples were observed by TEM (Tecnai G2 20 S-TWIN) at an accelerating voltage of 200 kV.

Substance | Cell toxicity (CCK-8 cell viability) (HeLa cells) | CMC [1] [µM] | Initial nanostructure (TEM) [2] | Nanoparticle size by TEM, 0 h [2] [nm] | Nanoparticle size by TEM, 4 h [2]
FAGFT [self-assembling pentapeptide identified from OBOC library] | No cell toxicity was observed | 13.9 | nanoparticles | 10 | 15 nm
FFVDF [self-assembling pentapeptide identified from OBOC library, forms nanofibers] | No cell toxicity was observed | 14.4 | nanofibers |  | 
FGFDP [self-assembling pentapeptide identified from OBOC library] | No cell toxicity was observed | 14.8 | nanoparticles |  | 
FTISD [self-assembling pentapeptide identified from OBOC library] | No cell toxicity was observed | 10.04 | nanoparticles |  | 
ISDNL [self-assembling pentapeptide identified from OBOC library] | No cell toxicity was observed | 9.4 | nanoparticles |  | 
ITSVV [self-assembling pentapeptide identified from OBOC library] | No cell toxicity was observed | 14.8 | nanoparticles |  | ~ 300 nm
LDFPI [self-assembling pentapeptide identified from OBOC library] | No cell toxicity was observed | 8.4 | nanoparticles | 8 | 8 nm
YFTEF [self-assembling pentapeptide identified from OBOC library] | No cell toxicity was observed | 11.4 | nanoparticles | 41 | 75 nm
